Assays:
redroot pigweed [1] = experiment: Test Example 5: herbicidal effect by foliage application, plastic box (Table 20, symbol N); type: in vivo, redroot pigweed (Amaranthus retroflexus); details: foliage application, 320 g/ha, three weeks after application
Text: [Test Example 5] Herbicidal Effect Test by Foliage Application
(§1) Sterilized diluvial soil was placed in a plastic box having a length of 21 cm, a width of 13 cm, and a depth of 7 cm. The seeds of each of southern crabgrass, green foxtail, barnyard grass, wild oat, blackgrass, Italian ryegrass, windgrass, velvetleaf, redroot pigweed, lambsquarters, chickweed, false cleavers, persian speedwell, corn, soybean, rice, wheat, beet, and rapeseed were sowed in a spot-like manner and covered with the soil having a thickness of about 1.5 cm. Thereafter, the plants were grown in a greenhouse at 25° C. to 30° C. After 14-day growth of the plants, the emulsion agent of the compound of the present invention prepared according to Formulation Example 2 was diluted with water so as to achieve a predetermined herbicide amount, and the diluted emulsion agent was uniformly applied to a foliage part with a small-sized spray. Three weeks after the herbicide application, the effect of the herbicide on each plant was evaluated according to the criteria of Test Example 1.

southern crabgrass [2] = experiment: Test Example 5: herbicidal effect by foliage application, plastic box (Table 20, symbol F); type: in vivo, southern crabgrass (Digitaria ciliaris); details: foliage application, 320 g/ha, three weeks after application
Outline: (§2)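 Plants were sown into sterilized diluvial soil under about 1.5 cm cover and kept in a greenhouse at 25° C. to 30° C. Fourteen days on, foliage received an even spray of the diluted emulsion. Herbicidal or crop effect was judged three weeks afterwards.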

southern crabgrass [3] = experiment: Test Example 4: herbicidal effect by soil treatment (Table 19, symbol F); type: in vivo, southern crabgrass (Digitaria ciliaris); details: amount of applied herbicide 320 g/ha
Text: (§3) [Test Example 4] Herbicidal Effect Test by Soil Treatment
as §1, with “Subsequently,” for “Thereafter, the plants were grown in a greenhouse at 25° C. to 30° C. After 14-day growth of the plants,”, “the surface of the soil” for “a foliage part”, “spray. The plastic box was placed in a greenhouse at 25° C. to 30° C. for growth of the plants.” for “spray.”

redroot pigweed [4] = experiment: Test Example 4: herbicidal effect by soil treatment (Table 19, symbol N); type: in vivo, redroot pigweed (Amaranthus retroflexus); details: amount of applied herbicide 320 g/ha
Text: as §3
as §1, with “Subsequently,” for “Thereafter, the plants were grown in a greenhouse at 25° C. to 30° C. After 14-day growth of the plants,”, “the surface of the soil” for “a foliage part”, “spray. The plastic box was placed in a greenhouse at 25° C. to 30° C. for growth of the plants.” for “spray.”

green foxtail [5] = experiment: Test Example 5: herbicidal effect by foliage application, plastic box (Table 20, symbol G); type: in vivo, green foxtail (Setaria viridis); details: foliage application, 320 g/ha, three weeks after application
Outline: as §2

velvetleaf [6] = experiment: Test Example 5: herbicidal effect by foliage application, plastic box (Table 20, symbol M); type: in vivo, velvetleaf (Abutilon theophrasti); details: foliage application, 320 g/ha, three weeks after application
Outline: as §2

barnyard grass [7] = experiment: Test Example 3: herbicidal effect by foliage application, Wagner pot (Table 18, symbol H); type: in vivo, barnyard grass (Echinochloa crus-galli); details: amount of applied herbicide 320 g/ha
Outline: (§4)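 Plants were sown in alluvial soil held under 0.1–0.5 cm standing water and grown 14 days in a greenhouse at 25–30 °C. An emulsifiable formulation, water-diluted to the set dose, was then sprayed onto the foliage, and effects were scored three weeks later using previously defined criteria.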

barnyard grass [8] = experiment: Test Example 4: herbicidal effect by soil treatment (Table 19, symbol H); type: in vivo, barnyard grass (Echinochloa crus-galli); details: amount of applied herbicide 320 g/ha
Text: as §3
as §1, with “Subsequently,” for “Thereafter, the plants were grown in a greenhouse at 25° C. to 30° C. After 14-day growth of the plants,”, “the surface of the soil” for “a foliage part”, “spray. The plastic box was placed in a greenhouse at 25° C. to 30° C. for growth of the plants.” for “spray.”

lambsquarters [9] = experiment: Test Example 4: herbicidal effect by soil treatment (Table 19, symbol O); type: in vivo, lambsquarters (Chenopodium album); details: amount of applied herbicide 320 g/ha
Text: as §3
as §1, with “Subsequently,” for “Thereafter, the plants were grown in a greenhouse at 25° C. to 30° C. After 14-day growth of the plants,”, “the surface of the soil” for “a foliage part”, “spray. The plastic box was placed in a greenhouse at 25° C. to 30° C. for growth of the plants.” for “spray.”

Chinese sprangletop = experiment: Test Example 3: herbicidal effect by foliage application, Wagner pot (Table 18, symbol D); type: in vivo, chinese sprangletop (Leptochloa chinensis); details: amount of applied herbicide 320 g/ha
Outline: as §4

lambsquarters [10] = experiment: Test Example 5: herbicidal effect by foliage application, plastic box (Table 20, symbol O); type: in vivo, lambsquarters (Chenopodium album); details: foliage application, 320 g/ha, three weeks after application
Outline: as §2

barnyard grass [11] = experiment: Test Example 5: herbicidal effect by foliage application, plastic box (Table 20, symbol H); type: in vivo, barnyard grass (Echinochloa crus-galli); details: foliage application, 320 g/ha, three weeks after application
Outline: as §2

rice flat sedge = experiment: Test Example 3: herbicidal effect by foliage application, Wagner pot (Table 18, symbol E); type: in vivo, rice flat sedge (Cyperus iria); details: amount of applied herbicide 320 g/ha
Outline: as §4

green foxtail [12] = experiment: Test Example 4: herbicidal effect by soil treatment (Table 19, symbol G); type: in vivo, green foxtail (Setaria viridis); details: amount of applied herbicide 320 g/ha
Text: as §3
as §1, with “Subsequently,” for “Thereafter, the plants were grown in a greenhouse at 25° C. to 30° C. After 14-day growth of the plants,”, “the surface of the soil” for “a foliage part”, “spray. The plastic box was placed in a greenhouse at 25° C. to 30° C. for growth of the plants.” for “spray.”

velvetleaf [13] = experiment: Test Example 4: herbicidal effect by soil treatment (Table 19, symbol M); type: in vivo, velvetleaf (Abutilon theophrasti); details: amount of applied herbicide 320 g/ha
Text: as §3
as §1, with “Subsequently,” for “Thereafter, the plants were grown in a greenhouse at 25° C. to 30° C. After 14-day growth of the plants,”, “the surface of the soil” for “a foliage part”, “spray. The plastic box was placed in a greenhouse at 25° C. to 30° C. for growth of the plants.” for “spray.”

Compound | N: redroot pigweed, herbicidal effect grade (redroot pigweed [1]) | F: southern crabgrass, herbicidal effect grade (southern crabgrass [2]) | herbicidal effect, F: southern crabgrass (southern crabgrass [3]) | herbicidal effect, N: redroot pigweed (redroot pigweed [4]) | G: green foxtail, herbicidal effect grade (green foxtail [5]) | M: velvetleaf, herbicidal effect grade (velvetleaf [6]) | herbicidal effect on H: barnyard grass (barnyard grass [7]) | herbicidal effect, H: barnyard grass (barnyard grass [8]) | herbicidal effect, O: lambsquarters (lambsquarters [9]) | herbicidal effect on D: Chinese sprangletop (Chinese sprangletop) | O: lambsquarters, herbicidal effect grade (lambsquarters [10]) | H: barnyard grass, herbicidal effect grade (barnyard grass [11]) | herbicidal effect on E: rice flat sedge (rice flat sedge) | herbicidal effect, G: green foxtail (green foxtail [12]) | herbicidal effect, M: velvetleaf (velvetleaf [13])
CC(CSc1ccc(-c2sc3ccc(F)cc3c2-c2c(O)c(C)nn(C)c2=O)cc1)=NO [2-452] | 5 (Herbicidal rate of 90% or more (almost completely withered)) | 3 (Herbicidal rate of 40% or more and less than 70%) | 0 (Herbicidal rate of 5% or less (almost no effect)) | 5 (Herbicidal rate of 90% or more (almost completely withered)) | 5 (Herbicidal rate of 90% or more (almost completely withered)) | 5 (Herbicidal rate of 90% or more (almost completely withered)) | 5 (Herbicidal rate of 90% or more (almost completely withered)) | 0 (Herbicidal rate of 5% or less (almost no effect)) | 4 (Herbicidal rate of 70% or more and less than 90%) | 0 (Herbicidal rate of 5% or less (almost no effect)) | 5 (Herbicidal rate of 90% or more (almost completely withered)) | 5 (Herbicidal rate of 90% or more (almost completely withered)) | 5 (Herbicidal rate of 90% or more (almost completely withered)) | 0 (Herbicidal rate of 5% or less (almost no effect)) | 0 (Herbicidal rate of 5% or less (almost no effect))
Cc1nn(C)c(=O)c(-c2c(-c3ccc(OC(F)(F)F)cc3)sc3ccc(Cl)cc23)c1O [2-457] | 4 (Herbicidal rate of 70% or more and less than 90%) | 3 (Herbicidal rate of 40% or more and less than 70%) | 0 (Herbicidal rate of 5% or less (almost no effect)) | 3 (Herbicidal rate of 40% or more and less than 70%) | 3 (Herbicidal rate of 40% or more and less than 70%) | 3 (Herbicidal rate of 40% or more and less than 70%) | 5 (Herbicidal rate of 90% or more (almost completely withered)) | 0 (Herbicidal rate of 5% or less (almost no effect)) | 2 (Herbicidal rate of 20% or more and less than 40%) | 3 (Herbicidal rate of 40% or more and less than 70%) | 5 (Herbicidal rate of 90% or more (almost completely withered)) | 5 (Herbicidal rate of 90% or more (almost completely withered)) | 5 (Herbicidal rate of 90% or more (almost completely withered)) | 0 (Herbicidal rate of 5% or less (almost no effect)) | 1 (Herbicidal rate of 5% or more and less than 20%)
